Measurements as given in patent publication EP2012793B1, “USE OF A TRICYCLIC COMPOUND FOR PREPARING A MEDICAMENT FOR TREATING SKELETAL MUSCLE DEGENERATION OF GENETIC ORIGIN” (Association Française contre les Myopathies, priority 2006, dated 2007).
Where a name gives a salt, the structure may show the parent alone.

Legend:
[1] = system: souche de nématode dépourvue de dystrophine; experiment: Test on dystrophin-deficient nematode strain (model of degenerative myopathy): paralysis phenotype and cytological count of degenerating muscle cells; type: in vivo, Caenorhabditis elegans; conditions: for Diminution de la dégénérescence en %: untreated = 0; for Pourcentage d'animaux paralysés à J7: untreated = 100
Procedure: Les composés ont été testés sur une souche de nématode dépourvue de dystrophine (Gieseler et al., Current Biology, 2000, vol. 10, p1092-1097) et (Ségalat, Neuromuscular Disorders, 2002, Suppl: S105-9). Cette souche est utilisée comme modèle de myopathie dégénérative. Dans cette souche, jusqu'à 30% des cellules musculaires servant à la locomotion (muscles longitudinaux) dégénèrent à l'état adulte (7 jours à 15°C), ce qui se traduit par une paralysie progressive des animaux.
Les composés sont administrés par mélange avec la gélose sur laquelle sont cultivés les animaux. Ils pénètrent par diffusion à travers la cuticule des animaux.
L'effet des composés sur la dégénérescence musculaire est évalué par 1) l'observation du phénotype des animaux (paralysie), et 2) par l'examen cytologique de la. dégénérescence musculaire au moyen de marqueurs musculaires : rodamine-phalloidine et anticorps anti-myosine. Cet examen permet de compter le nombre de cellules musculaires en dégénérescence ou mortes (Gieseler et al. , 2000, supra).

[2] = system: souris mdx (génotype C57/BL6 mdx5cv); experiment: mdx mouse, histological tests (fibre size dispersion, diaphragm degeneration/necrosis, centronucleated fibres); type: in vivo
Text: (§1) Les tests effectués chez la souris sont de plusieurs types : histologiques, fonctionnels sur l'animal entier, et fonctionnels sur muscles disséqués. Les tests sont effectués sur la souris mdx (génotype C57/BL6 mdx5cv), modèle murin de myopathie dégénérative. Ces tests sont notamment détaillés dans les publications suivantes auxquelles on pourra se référer : • De Luca A, et al. Am. J. Pathol. 2005; 166(2), 477-89. • Divet A, etal. Pflugers Arch. 2002 Aug; 444(5), 634-43. Epub 2002 Jul 10. • Rafael JA, et al. Mamm Genome. 2000 Sep; 11(9), 725-8.
(§2) Les composés sont administrés oralement aux souris dans leur nourriture. Les souris sont traitées de l'âge de 2 semaines à 6 semaines. Elles sont testées à 6 semaines.

[3] = system: souris mdx (génotype C57/BL6 mdx5cv); conditions: treated from 2 to 6 weeks of age
Text: as §1, §2

[4] = system: protéolyse du muscle de C. elegans; experiment: C. elegans muscle proteolysis model representative of cachexia (protocol of Zdinak et al.); type: in vivo; conditions: remaining proteolysis relative to control; strongly reduced
[5] = 0,1 mg/ml in culture agar (0,2-0,3 mM), after 7 days of culture at 15°C
[6] = concentration efficace 0,1 mg/ml in culture agar

Compound: CN(C)CC/C=C1/c2ccccc2Sc2ccc(Cl)cc21 [Chloroprothixene, chlorprothixene]
- Diminution de la dégénérescence en % ([1]; concentration efficace 0,02 mg/ml in culture agar): 58%

Compound: CN(C)CCC=C1c2ccccc2C=Cc2ccccc21 [Cyclobenzaprine, cyclobenzaprine]
- Réduction de l'indice de dégénérescence du diaphragme (fibres nécrotiques et fibres centronucléées) ([2]; 3mg/jour/kg oral in food, treated from 2 to 6 weeks of age): 21%
- Réduction de la dispersion de taille des fibres (marqueur de dégénérescence) ([2]; 3mg/jour/kg oral in food, treated from 2 to 6 weeks of age, versus untreated animals): 52%
- Augmentation de la force exercée dans test d'agrippement ([3]; 3mg/jour/kg oral in food): 24%
- Augmentation du score le test d'agrippement ([3]; 3mg/jour/kg oral in food): 40%
- Diminution de la dégénérescence en % ([1]; concentration efficace 0,05 mg/ml in culture agar): 63%

Compound: CNCCCN1c2ccccc2CCc2ccccc21 [Desipramine chlorhydrate, désipramine]
- Diminution de la dégénérescence en % [1, 5]: 58%
- Pourcentage d'animaux paralysés à J7 [1, 5]: 58%

Compound: CN(C)CCCN1c2ccccc2CCc2ccccc21 [Imipramine chlorhydrate, imipramine]
- Augmentation de la tension développée par le muscle EDL sur animaux vivants ([3]; 40mg/jour/kg oral in food): 20%
- Augmentation du score avec le test d'agrippement ([3]; 40mg/jour/kg oral in food): 48%
- Augmentation de la tension maximale développée par le muscle isolé ([3]; 40mg/jour/kg oral in food, triton-skinned fibre protocol): 50%
- protéolyse [4]: 20 % de la protéolyse du témoin
- Diminution de la dégénérescence en % [1, 5]: 37%
- Pourcentage d'animaux paralysés à J7 [1, 5]: 65%

Compound: COc1ccc2c(c1)N(C[C@H](C)CN(C)C)c1ccccc1S2 [Methotrimeprazine, méthotriméprazine]
- Diminution de la dégénérescence en % [1, 6]: 70%

Compound: CC(CN(C)C)CN1c2ccccc2Sc2ccccc21 (stereo not shown) [Trimeprazine, triméprazine]
- Diminution de la dégénérescence en % [1, 6]: 65%

Compound: CC(CN(C)C)CN1c2ccccc2CCc2ccccc21 (stereo not shown) [Trimipramine maleate, trimipramine]
- nécrose du diaphragme ([2]; 15 mg/kg/jour, test of Raymackers et al., p<5%): réduit la nécrose du diaphragme
- nombre de fibres centronucléées ([2]; 15 mg/kg/jour, test of Shavlakadze et al., p<0,1%): réduit

Compound: NCCc1c[nH]c2ccc(O)cc12 [sérotonine]
- dégénérescence musculaire ([1]; result in words, concentration not given): diminue également la dégénérescence musculaire
